Laboratory results from article PMC3706402, “Identification and Expression of the CCAP Receptor in the Chagas’ Disease Vector, Rhodnius prolixus, and Its Involvement in Cardiac Control” (PLoS ONE, 2013).
“Also recorded” adds a separate entry of the source. Bridge positions count the residues as written; N and C are the ends. Ends that are not written are not given here.

Tests used:
RhoprCCAPR [1] = assay: Functional receptor expression (aequorin bioluminescence, calcium mobilization) assay in CHO-WTA11 cells; assay type: cell-based, Rhodnius prolixus; conditions: for Activation of RhoprCCAPR (in words): CHO-WTA11 cells expressing RhoprCCAPR, bioluminescent response
Description: The coding region of RhoprCCAPR (1,128 bp) (RhoprCCAPR) was amplified from unfed 5th instar CNS cDNA with gene specific primers (Table 1C) using a Q5 High fidelity DNA polymerase (New England Biolabs, Pickering, ON). At the 5′ end before the ATG initiation codon, the Kozak translation initiation sequence ([…]) was introduced since this is required for optimal translation by eukaryotic ribosomes (Table 1C) [26]–[28]. The PCR product was run on a 0.8% agarose gel for 40 mins (160V) and the correct size of band was excised and purified (Promega, Madison, WI, USA). This was then subcloned into the pGEM T easy vector (Promega, Madison, WI) to verify its sequence. The insert with the Kozak sequence was excised using restriction enzyme (NotI) and subcloned into the expression vector, pcDNA™3.1(+) (Invitrogen, Carlsbad, CA) to express in Chinese hamster ovary (CHO-K1) WTA11, mammalian cells (Euroscreen S. A., Belgium; provided by Prof. Dr. M. Parmentier and Dr. M. Detheux; Brussels, Belgium).
RhoprCCAPR was transiently expressed in CHO-WTA11 cells that stably express promiscuous Gα16 and apoaequorin. This cell line has been used extensively for insect GPCR functional assays. The transfection was performed using X-treme HP DNA transfection reagent (Roche Applied Science, Indianapolis, IN) with the ratio of 3 (transfection reagent) to 1 (RhoprCCAPR/pcDNA™3.1(+) or empty pcDNA™3.1(+) vector) according to the manufacture’s protocol (Roche Applied Science, Indianapolis, IN). Cells were grown in the complete Dulbecco’s Modified Eagle Medium Nutrient Mixture F12-Ham (DMEM/F12, 10% fetal bovine serum, FBA, 100 IU/ml penicillin/streptomycin (Invitrogen, Carlsbad, CA)) in the 5% CO2 37°C incubator. After 48 hours, transfected cells were incubated with 5 µM Coelentarazine for 4 hours (Invitrogen, Carlsbad, CA) at room temperature in the dark. Interaction between ligand and the cloned RhoprCCAPR leads to a bioluminescent response that is mediated by the IP3/Ca^2+ signaling pathway. The luminescence assay was performed on opaque 96-well microplates (Corning, Lowell, MA). 50 µl of cells were introduced into each well of the 96-well plate that contained either controls or different concentration of peptides (RhoprCCAP, RhoprCorazonin, RhoprAKH and GNDNFMRFa) (Table 2) and the changes of luminescence were recorded for 20 sec. Wells only containing DMEM/0.1% BSA medium served as a negative control, while wells containing 50nM ATP served as a positive control. All luminescence values were corrected for background values from wells containing only DMEM/BSA medium and all values were calculated as maximum percentage difference. The response for each ligand concentration in replica wells and from at least three replica plates was averaged for analysis. GraphPad prism 5 (version 5.03) was used to analyze and generate the data.

[2] = test system: heartbeat frequency in some insects; conditions: 34 (so in the source); cited from earlier work
Text: (§1) Also, these peptides are functionally inter-related. […] [33]. In M. sexta, AKH mobilize lipids from the fat body during flight or locomotion when heartbeat frequency also increases.

corpora cardiaca = conditions: 33 (so in the source); cited from earlier work
Text: as §1

[3] = test system: heart rate in Manduca sexta; conditions: cited from earlier work
Text: (§2) Crustacean cardioactive peptide (CCAP) is a cyclic nonapeptide that is conserved in arthropods. CCAP was first isolated as a cardioaccelerator from the pericardial organs of the shore crab, Carcinus maenas, [8]. Later, it was biochemically isolated from the nervous system of insects, [10]. The important functions of CCAP in insects have been well documented.

[4] = test system: oviduct of Locusta migratoria; conditions: cited from earlier work
Text: as §2

[5] = test system: heart rate in Drosophila melanogaster; conditions: cited from earlier work
Text: as §2

[6] = test system: dorsal vessel of R. prolixus; assay: In vitro heartbeat (dorsal vessel preparation, impedance converter); parameters: species or system Rhodnius prolixus
Description: Adult R. prolixus were anesthetized with CO2 for 10 sec and 1 µl of 2 µg of dsCCAPR was injected into the thorax using a 5 µl Hamilton syringe to knock down RhoprCCAPR transcript levels. As a control, groups of R. prolixus were injected with either 1 µl of dsARG or had no injection. R. prolixus were left for 1 hour at room temperature to recover and then placed into an incubator at 28°C on a 16 h:8 h light/dark cycle.
In vitro heartbeat was monitored as described in Lee and Lange (2011) with minor modifications. The ventral cuticle, digestive and reproductive systems were dissected and removed under RNase free saline. The dorsal vessel and dorsal diaphragm remained attached to the dorsal cuticle. Then, the dorsal cuticle was placed onto a Sylgard-coated dissecting dish and covered with 100 µL of saline. Electrodes attached to an impedance converter (UFI model 2991, Morro Bay, CA, USA) were placed between the fifth and sixth abdominal segments on either side of the dorsal vessel anterior to the alary. The preparation was stabilized in 100 µL of saline for 10 min at room temperature, and then 50 µL of 10^−9M CCAP was exchanged for 50 µL of saline. Heartbeat frequency was measured from the traces observed on a Linear Flat-bed single channel chart recorder. The preparation was washed with saline for 5 mins post application of CCAP. Heartbeat frequency was determined for 1 min before and after the application of 10^−9M CCAP. The response to 10^−9M CCAP was quantified by measuring the increase in frequency compared to saline, which was then expressed as a percentage of the maximum change in frequency for each preparation. Pools of tissues including dorsal vessel/fat body/trachea were collected and the percentage of knockdown was measured by qPCR as indicated above.

hindgut of R. prolixus = test system: hindgut of R. prolixus; parameters: method as in earlier work; conditions: dose-dependent; ref 31 (so in the source); cited from earlier work
[7] = test system: midgut α-amylase and protease activity; conditions: cited from earlier work
Text: as §2, with “documented. […] The CCAP may act in a paracrine manner, released from CCAP-containing midgut endocrine cells, [44].” for “documented.”

CCAP receptor (CG6111) = conditions: read-out: EC50, D. melanogaster CCAP receptor (CG6111); cited from earlier work
Text: (§3) The improved sensitivity of this cell line over CHO-K cells is due to presence of the promiscuous Gα proteins.

CCAP receptor = conditions: read-out: EC50, A. gambiae CCAP receptor; cited from earlier work
Text: as §3

CCAPR1 = conditions: read-out: EC50, T. castaneum CCAPR1; cited from earlier work
Text: as §3

CCAPR2 = conditions: read-out: EC50, T. castaneum CCAPR2; cited from earlier work
Text: as §3

RhoprCCAPR [8] = assay: Calcium mobilization assay with RhoprCCAPR expressed in CHO-K1 cells; assay type: cell-based, Rhodnius prolixus; conditions: without promiscuous Gα, read-out: EC50 using CHO-K1 cells
Description: To determine the endogenous ligand for the isolated putative RhoprCCAPR in R. prolixus, we used a calcium mobilization assay which expresses the RhoprCCAPR clone in CHO-K1 cells. […] The receptor was not activated by other peptides that were tested, including RhoprAKH, RhoprCorazonin and an extended RhoprFMRFa, GNDNFMRFa (Figure 5A, 5B, Table 2). […] Thus, our control data illustrate that the functional receptor assay system is only activated in cells that are transfected with RhoprCCAPR and not by any endogenous receptors in these CHO cells.

heart of R. prolixus = conditions: cited from earlier work
[9] = CHO-WTA11 cells stably expressing Gα16 and apoaequorin, luminescence recorded 20 sec, averaged from at least three replica plates

**Q.** With GNDNFMRF-NH2 [ExtendedFMRFa] as the substance, how does the “Activation of RhoprCCAPR (in words)” value (RhoprCCAPR [1]; listed as GNDNFMRFa) read?
**A.** not activated

**Q.** What about the “EC50 (M) RhoprCCAPR” value (RhoprCCAPR [1]; [9]) of the same substance?
**A.** Not active

**Q.** What does the source list for “PFCNAFTGC-NH2 (disulfide 3-9 (inferred)) [RhoprCCAP]”?
**A.** Effect on heartbeat frequency in some insects [2]: increase heartbeat frequency; Effect on AKH release (corpora cardiaca): influences AKH release; EC50 (RhoprCCAPR [1]; [9]): 12.2 nM; Effect on heart rate, M. sexta [3]: triggers increasing heart rate; Effect on oviduct contractions [4]: modulates oviduct contractions; Effect on heart rate, D. melanogaster [5]: triggers increasing heart rate; Effect of CCAP on heartbeat after RhoprCCAPR knockdown (in words) ([6]; 10^−9 M CCAP, RhoprCCAPR knocked down by dsCCAPR, in vitro): loss of function; also recorded: unresponsive; also recorded: eliminates the CCAP-induced increase in vitro; also recorded: cardioacceleratory effect is abolished; In vitro heartbeat frequency in the presence of 10^−9 M CCAP, dsARG treated bugs ([6]; dsARG-treated bugs, saline baseline 10.4±2.9, paired t test p = 0.0376, vs dsCCAPR unpaired p = 0.0318, mean ± SEM, n = 5 (Figure 6)): 15.6±3.9 beats/min; In vitro heartbeat frequency in the presence of 10^−9 M CCAP, dsCCAPR treated bugs ([6]; dsCCAPR-treated bugs, saline baseline 5.4±3.0, paired t test p = 0.1688, vs dsARG unpaired p = 0.0318, mean ± SEM, n = 5 (Figure 6)): 4.6±3.3 beats/min; Effect on hindgut contraction (hindgut of R. prolixus): increases heartbeat frequency and contraction in a dose-dependent manner; Effect on enzyme secretion, P. americana [7]: regulates enzyme secretion; Effect on α-amylase and protease activity ([7]; isolated midgut): increases α-amylase and protease activity; EC50 (CCAP receptor (CG6111)): 0.54 nM; EC50 (CCAP receptor): 1 nM; EC50 (CCAPR1): 624 nM; EC50 (CCAPR2): 22 nM; EC50 (RhoprCCAPR [8]): 341 ± 8.8 nM; Effect on heartbeat frequency in the heart, R. prolixus (Discussion) (heart of R. prolixus; dose-dependent, ref 31 (so in the source)): increases heartbeat frequency and contraction in a dose-dependent manner; Effect on heartbeat frequency, R. prolixus (heart of R. prolixus; in vitro, 5th instar): increases heartbeat frequency in vitro; also recorded: increases the frequency of the heartbeat in R. prolixus in a reversible, dose-dependent manner

**Q.** With “pQLTFSTDW-NH2 [RhoprAKH, adipokinetic hormone, pQLTFSTDW-NH2]” as the substance, how does the “Effect on heartbeat frequency in some insects” value [2] read?
**A.** increase heartbeat frequency

**Q.** What about the “Activation of RhoprCCAPR (in words)” value (RhoprCCAPR [1]) of the same substance?
**A.** not activated

**Q.** And the “Activation of RhoprCCAPR (in words)” value (RhoprCCAPR [1]; listed as AKH)?
**A.** neither AKH nor corazonin activate the RhoprCCAPR

**Q.** And the “EC50 (M) RhoprCCAPR” value (RhoprCCAPR [1]; [9])?
**A.** Not active

**Q.** Which results are given for pQTFQYSRGWTN-NH2 [Corazonin]?
**A.** Effect on heartbeat frequency in some insects [2]: increase heartbeat frequency; Activation of RhoprCCAPR (in words) (RhoprCCAPR [1]): neither AKH nor corazonin activate the RhoprCCAPR; Activation of RhoprCCAPR (in words) (RhoprCCAPR [1]; listed as RhoprCorazonin): not activated; EC50 (M) RhoprCCAPR (RhoprCCAPR [1]; [9]): Not active
